Measurements from US12304894B2, “Derivatives of adamantyl oxadiazoles and pharmaceutically acceptable solvates, hydrates and salts thereof, pharmaceutical composition comprising same, synthesis method, suitable for use as effective and selective inhibitors of the reductase activity of the enzyme 11-beta dehydrogenase type 1 …” (PONTIFICIA UNIVERSIDAD CATOLICA DE CHILE, priority 2019, dated 2025).

Columns and labels:
[1] = biological target: T1, recombinant 11β-HSD1 enzyme (Homo sapiens (Human), UniProt P28845); assay: 11β-HSD1 oxidase activity (HTRF Cortisol Kit); type: biochemical
T1 sequence (P28845 whole entry): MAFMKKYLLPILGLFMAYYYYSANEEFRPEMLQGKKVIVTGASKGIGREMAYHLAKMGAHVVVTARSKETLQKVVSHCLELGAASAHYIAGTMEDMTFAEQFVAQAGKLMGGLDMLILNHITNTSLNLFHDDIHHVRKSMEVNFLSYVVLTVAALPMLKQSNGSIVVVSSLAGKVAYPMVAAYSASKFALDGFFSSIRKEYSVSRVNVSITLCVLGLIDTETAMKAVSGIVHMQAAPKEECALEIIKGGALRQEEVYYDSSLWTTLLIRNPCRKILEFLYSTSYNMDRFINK
Experimental: Determination of 11β-HSD1 Oxidase Activity
The Cortisol Kit (Cisbio) product was used for that purpose.
For the analysis, the compounds are reconstituted in DMSO in a stock of 10 mM concentration, from which serial dilutions were prepared for the efficiency curve.
The recombinant 11β-HSD1 enzyme dilutions were prepared in 20 mM Tris Buffer 5 mM EDTA pH 6.0 (Tris buffer).
Initially, the enzyme concentration to be used was determined. For this purpose, a plate for HRTF was prepared with Tris buffer with 100 nM cortisol and 200 μM NADP+, including in the wells of the plate for HTRF together with the enzyme in a 4:1 ratio, respectively, and incubated for 2 hours at 37° C. After this time, the reagents of the Cortisol kit, Cortisol d2 and Cortisol cryptate in sample ratio, Cortisol d2 and cortisol cryptate 2:1:1 were added, incubating this new reaction for 1 hour at room temperature. Subsequently, the fluorescence was determined at 665 and 620 nm.
An HRTF plate was again prepared, where the reaction buffer, the recombinant 11β-HSD1 enzyme and the compound were added in each well in a 3:1:1 ratio, respectively. The plate was incubated at 37° C. for 2 hours. After the incubation time, the reagents of the cortisol kit, cortisol d2 and cortisol cryptate, were added as indicated above. They were then incubated at room temperature for 1 hour to finally read the fluorescence at 665 and 620 nm.

[2] = biological target: T1, recombinant 11β-HSD1 enzyme; assay: 11β-HSD1 reductase activity (HTRF Cortisol Kit); type: biochemical; conditions: 266 nM cortisone, 333 μM NADPH, read-out: 11b-HSD1 reductase (HTRF) IC50
Experimental: Determination of 11β-HSD1 Reductase Activity
First, stock solutions of the compounds were prepared in DMSO at a concentration of […], of which serial dilutions were made in order to determine the efficacy curve.
As for the recombinant 11β-HSD1 enzyme (Cayman Chemical, MI, USA; Item No. 10007815), it was prepared in Tris Buffer 20 mM EDTA 5 mM pH 6.0 (Tris buffer) at different dilutions.
Initially, the enzyme concentration to be used in the assays in order to evaluate the biological activity of the compounds was determined. The Cortisol Kit product (Cisbio, MA, USA; Cat no. 62CRTPEG) was used for that purpose.
The protocol consisted of preparing the reaction buffer, adding 266 nM cortisone and 333 μM NADPH in Tris buffer. Then, this reaction buffer is added to the wells of the HTRF (Homogeneous Time Resolved Fluorescence) reaction plate together with the enzyme in a 4:1 ratio respectively, and incubated for 2 hours at 37° C. In the case of the control wells, two wells with Tris buffer were added, without compounds.
After the incubation time, the reagents of the Cortisol kit were added, Cortisol d2 and Cortisol cryptate in sample ratio, Cortisol d2 and cortisol cryptate 2:1:1, in a quantity according to the size of the well as indicated by the supplier (for the negative control of the kit, the cortisol d2 is replaced by the kit's reconstitution buffer). This reaction is incubated for 1 hour at room temperature in order to later read the fluorescence at 665 and 620 nm.
Once the enzyme concentration to be used has been determined, the cortisol kit protocol is continued to determine the efficacy curve for the compounds. As previously done, a plate for HTRF was prepared adding to each well of the reaction buffer, the recombinant 11β-HSD1 enzyme and the compounds to be assayed in a 3:1:1 ratio, respectively. The plate was subsequently incubated at 37° C. for 2 hours.
After the incubation time, the reagents of the cortisol kit, cortisol d2 and cortisol cryptate, are added, and were incubated again for 1 hour at room temperature. Finally, the fluorescence of each well was determined at 665 and 620 nm.

Cc1cccc(CCc2nc(C34CC5CC(CC(C5)C3)C4)no2)c1 [BD-40, 1-(3-methylphenyl)-2-(3-adamantyl-1,2,4-oxadiazol-5-yl)ethane]
11b-HSD1 oxidase (activ rem %) 100 nM ([1]; remaining activity at 100 nM compound): 92.1% | 11b-HSD1 oxidase (activ rem %) 100 uM ([1]; remaining activity at 100 uM compound): 89.9% | IC50 [2]: 11.8 nM
